Experimental data published in patent US20250230124A1, “SMALL MOLECULE INHIBITORS OF ID PROTEINS” (MEMORIAL SLOAN-KETTERING CANCER CENTER, priority 2022, published 2025).

Tests used:
DU145 cells = assay: Prostate cancer cell morphology, growth and death; type: cell-based; conditions: for outcome of treatment of DU145 cells: after six days; for effect on DU145 cells (health, proliferation): after three days
Method: Prostate cancer cell lines DU145 and PC3 (in 10% BCS) will be cultured in Ham's F12 (Gibco, Carlsbad, Calif.) medium containing 10% BCS (Hyclone, Logan, Utah) and appropriate antibiotics (pen/strep, fungizaone, and gentamycin (Invitrogen Inc., Carlsbad, Calif.). All cells will be cultured at 37° C. in a fully humidified atmosphere containing 5% CO2.
At 50% confluence, the cells will be treated with either 100 μM DMSO, AGX51, AGX-A, or a compound of the present technology. The cell morphology and growth will be monitored daily for 1 week by microscopy for changes in morphology or cell death. Apoptosis will be determined by measuring caspase 3 and caspase 7 activities using the Caspase-Glo 3/7 Assay system from Promega (Madison, Wis.).

LLC cancer cells = assay: Metastatic activity in LLC mouse model; type: in vivo; conditions: daily ip
Method: Thirty C57BL/6 mice will be implanted with 7.5×10^5 LLC cancer cells/animal. Seven days after implantation, 5M/5F per group will be treated daily ip for 25 days with dosing vehicle (DMSO), AGX51, AGX-A, or a compound of the present technology. Fourteen days after implantation, another group of 5M/5F animals will be treated daily ip for 18 days with 50 mg/kg of AGX51, another group of 5M/5F animals will be treated daily ip for 18 days with 50 mg/kg of AGX-A, and another group of 5M/5F animals will be treated daily ip for 18 days with a compound of the present technology. Tumors will be measured three times from Day 7 to 14. On Day 14, the tumors will be excised. The animals will be necropsied for the presence of lung metastases on day 32, 18 days post excision.

[1] = system: CD31-positive microvessels in Matrigel plugs; assay: Anti-angiogenic activity in VEGF-165 and FGF-2 treated Matrigel plugs; type: in vivo, mouse; conditions: for protection from new blood vessel formation: compared to vehicle control animals; for presence of endothelial cells in Matrigel plugs: mouse, in vivo
Method: VEGF-165 and FGF-2 treated Matrigel plugs will be implanted on Day 0 into C57BL/6 mice. Mice will be treated with either vehicle, AGX51, AGX-A, or a compound of the present technology. The AGX51, AGX-A, and compound of the present technology will be provided either in the plugs (25 μg/mg) or by daily ip treatment (30 or 100 mg/kg) for 10 days. Plugs will be harvested on Day 10, fixed and paraffin embedded. Three sections ([…] thickness) of each plug will be stained with an anti-CD31 antibody and counterstained with hematoxylin and eosin stain. CD31-positive microvessels will be counted for one entire cross-section per plug and the average micro-vessel density±SD vessels will be determined. Student's t-test will be used for statistical analysis.

cells = assay: Cell killing / cell viability assay; type: cell-based
Method: Cell viability assays. Cell lines will be seeded in a 96 well plate (5000 cells per well). After overnight incubation, cells will be treated with a compound of the present technology and incubated for 24 hours then MTT reagent (5 mg/mL) will be added per well and the cells will be incubated for four hours. Following incubation, media will be aspirated and 200 μL DMSO will be added per well. Absorbance will then be measured at 570 nm using a plate reader (Synergy 2, BioTek). Cell growth profiles will be determined by seeding 38,000 cells in a 24-well plate, in triplicate for each time point, and counting the cells on days 1, 3 and 5 after seeding, using trypan blue exclusion of dead cells.

[2] = system: cholangiocarcinoma PDX RomeP_PHCH_X_0008a; assay: Murine patient-derived xenograft model of cholangiocarcinoma, tumor volume; type: in vivo, mouse; conditions: NSG mice, 50 or 100 mg/kg p.o. BIDx5 x 4 weeks
From the text: An animal model of cholangiocarcinoma predictive of anti-cholangiocarcinoma drug efficacy in humans, as described in Mattar, M. et al. Establishing and Maintaining an Extensive Library of Patient-Derived Xenograft Models. Front Oncol. 2018 Feb.
• Mice: NSG females, 6-8 weeks old • PDX: RomeP_PHCH_X_0008a, serially transplanted sc with matrigel • Treatment Groups (at least 5 animals/group): treatments started when tumors reached 100 mm^3 (“Day 0” for each animal), dosed via oral gavage • Group 1. Saline with 10% by weight 2-hydroxypropyl-β-cyclodextrin (“Vehicle”), p.o. twice daily for 5 days per week (“BIDx5”) for 4 weeks (“×4 weeks”) • Group 2. AGX-A 50 mg/kg in Vehicle, p.o. BIDx5×4 weeks • Group 3. AGX-A 100 mg/kg in Vehicle, p.o. BIDx5×4 weeks • Group 4. AGX-502 50 mg/kg in Vehicle, p.o. BIDx5×4 weeks • Group 5. AGX-502 100 mg/kg in Vehicle, p.o. BIDx5×4 weeks.
Tumor volumes, weights, and clinical signs were monitored a minimum of twice per week for each animal in each group throughout the study. Mice were sacrificed by CO2 asphyxiation once the tumor volume exceeded 2000 mm^3 or body weight loss was higher than 10%. Upon completion of the experiment, tumors were harvested and processed for immunoblotting and/or immunohistochemistry assays.

ID1 = molecular target: T1, ID1 (Homo sapiens, UniProt P41134); assay: Activity against ID1 in cells (Western Blot); type: cell-based
T1 construct: endogenous in cells
T1 sequence (P41134 1-155): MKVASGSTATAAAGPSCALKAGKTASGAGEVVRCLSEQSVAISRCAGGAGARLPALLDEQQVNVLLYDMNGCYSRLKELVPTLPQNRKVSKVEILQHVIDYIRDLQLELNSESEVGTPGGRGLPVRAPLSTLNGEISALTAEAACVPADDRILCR

Compound | outcome of treatment of DU145 cells (DU145 cells) | effect on DU145 cells (health, proliferation) (DU145 cells) | lung metastases (LLC cancer cells) | protection from new blood vessel formation [1] | presence of endothelial cells in Matrigel plugs [1] | activity by cell killing (cells) | time to complete cell killing (cells) | IC50 (24 h) (cells; 24 h, initial testing) | anti-cancer efficacy (tumor volume) [2] | activity against ID1 in cells (ID1) | activity by Western Blot (ID1)
CCC(=O)N(CCC(c1ccc2c(c1)OCO2)c1ccccc1OC)Cc1ccccc1 (racemic) [AGX51, N-(3-(benzo[d][1,3]dioxol-5-yl)-3-(2-methoxyphenyl)propyl)-N-benzylpropionamide] | cell death | pronounced effect | profoundly diminish | significant protection | significantly decrease |  |  |  |  |  | 
COc1ccccc1C(CCNC(C)c1ccccc1)c1ccc(OC(C)C)cc1 (centres unmarked) [AGX-502] |  |  |  |  |  | very active | ≤ 8 h | significantly favorable | dose-dependent anti-cancer efficacy | significant activity | very active
COc1ccccc1C(CCNCc1ccccc1)c1ccc(OC(C)C)cc1 (centres unmarked) [AGX-A, N-benzyl-3-(4-isopropoxyphenyl)-3-(2-methoxyphenyl)propan-1-amine] | cell death | pronounced effect | profoundly diminish | significant protection | significantly decrease |  | ≤ 24 h |  |  |  | 
